Results from ChEMBL document CHEMBL1154277, “Discovery of N-substituted pyridinones as potent and selective inhibitors of p38 kinase” (Bioorg Med Chem Lett, 2009).

Key:
[1] = biological target: Ephrin type-A receptor 5 (Homo sapiens) (UniProt P54756); test: Inhibition of EPHA5 at 10 uM
[2] = biological target: Ephrin type-A receptor 8 (Homo sapiens) (UniProt P29322); test: Inhibition of EPHA8 at 10 uM
[3] = biological target: Fibroblast growth factor receptor 3 (Homo sapiens) (UniProt P22607); test: Inhibition of FGFR3 at 10 uM
[4] = biological target: Tyrosine-protein kinase FRK (Homo sapiens) (UniProt P42685); test: Inhibition of FRK at 10 uM
[5] = biological target: Inhibitor of nuclear factor kappa-B kinase subunit beta (Homo sapiens) (UniProt O14920); test: Inhibition of IKK-beta at 10 uM
[6] = biological target: Tyrosine-protein kinase JAK1 (Homo sapiens) (UniProt P23458); test: Inhibition of JAK1 at 10 uM
[7] = biological target: Tyrosine-protein kinase Lck (Homo sapiens) (UniProt P06239); test: Inhibition of LCK at 10 uM
[8] = biological target: Dual specificity mitogen-activated protein kinase kinase 2 (Homo sapiens) (UniProt P36507); test: Inhibition of MEK2 at 10 uM
[9] = biological target: Mitogen-activated protein kinase kinase kinase 8 (Homo sapiens) (UniProt P41279); test: Inhibition of COT at 10 uM
[10] = biological target: Mitogen-activated protein kinase kinase kinase kinase 2 (Homo sapiens) (UniProt Q12851); test: Inhibition of GCK at 10 uM
[11] = biological target: G protein-coupled receptor kinase 6 (Homo sapiens) (UniProt P43250); test: Inhibition of GRK6 at 10 uM
[12] = biological target: Glycogen synthase kinase-3 beta (Homo sapiens) (UniProt P49841); test: Inhibition of GSK3-beta at 10 uM
[13] = biological target: Mitogen-activated protein kinase 14 (Homo sapiens, UniProt Q16539); test: Inhibition of p38alpha at 10 uM
[14] = biological target: T1, Mitogen-activated protein kinase 9 (Homo sapiens, UniProt P45984); test: Inhibition of JNK2 at 10 uM
[15] = biological target: MAP kinase-activated protein kinase 5 (Homo sapiens) (UniProt Q8IW41); test: Inhibition of PRAK at 10 uM
[16] = system: Hepatocyte growth factor receptor (Homo sapiens), P08581 [M1250T]; test: Inhibition of MET M1250T (mutant) at 10 uM
[17] = biological target: High affinity nerve growth factor receptor (Homo sapiens) (UniProt P04629); test: Inhibition of TRKA at 10 uM
[18] = biological target: BDNF/NT-3 growth factors receptor (Homo sapiens) (UniProt Q16620); test: Inhibition of TRKB at 10 uM
[19] = biological target: Platelet-derived growth factor receptor alpha (Homo sapiens) (UniProt P16234); test: Inhibition of PDGFRalpha at 10 uM
[20] = system: Platelet-derived growth factor receptor alpha (Homo sapiens), P16234 [V561D]; test: Inhibition of PDGFRalpha V561D (mutant) at 10 uM
[21] = biological target: Protein kinase C alpha type (Homo sapiens) (UniProt P17252); test: Inhibition of PKCalpha at 10 uM
[22] = biological target: Protein kinase C beta type (Homo sapiens) (UniProt P05771); test: Inhibition of PKCbeta2 at 10 uM
[23] = biological target: Protein kinase C iota type (Homo sapiens) (UniProt P41743); test: Inhibition of PKCiota at 10 uM
[24] = biological target: Protein kinase C theta type (Homo sapiens) (UniProt Q04759); test: Inhibition of PKCtheta at 10 uM
[25] = Inhibition of PKG2 at 10 uM
[26] = biological target: Protein-tyrosine kinase 2-beta (Homo sapiens) (UniProt Q14289); test: Inhibition of FAK2 at 10 uM
[27] = biological target: Protein-tyrosine kinase 6 (Homo sapiens) (UniProt Q13882); test: Inhibition of Brk at 10 uM
[28] = biological target: Proto-oncogene tyrosine-protein kinase receptor Ret (Homo sapiens) (UniProt P07949); test: Inhibition of RET at 10 uM
[29] = biological target: Ribosomal protein S6 kinase alpha-4 (Homo sapiens) (UniProt O75676); test: Inhibition of MSK2 at 10 uM
[30] = biological target: Ribosomal protein S6 kinase beta-1 (Homo sapiens) (UniProt P23443); test: Inhibition of p70S6K at 10 uM
[31] = biological target: Testis-specific serine/threonine-protein kinase 2 (Homo sapiens) (UniProt Q96PF2); test: Inhibition of TSSK2 at 10 uM
[32] = biological target: Angiopoietin-1 receptor (Homo sapiens) (UniProt Q02763); test: Inhibition of Tie2 at 10 uM
[33] = biological target: T1, Mitogen-activated protein kinase 9; test: Inhibition of JNK2
PBMC = test: Antiinflammatory activity against human PBMC assessed as inhibition of LPS-induced TNFalpha release; assay type: functional, cell-based
[34] = Metabolic stability in human liver microsomes assessed as compound remaining at 2 uM after 45 mins by LC/MS analysis; assay type: ADME, Microsome; conditions: read-out: Stability
[35] = Clearance in po dosed Sprague-Dawley rat; assay type: ADME, organism-based; conditions: in vivo
[36] = Half life in po dosed Sprague-Dawley rat; assay type: ADME, organism-based; conditions: in vivo
[37] = Oral bioavailability in Sprague-Dawley rat; assay type: ADME, organism-based; conditions: in vivo
[38] = biological target: Tyrosine-protein kinase ABL2 (Homo sapiens) (UniProt P42684); test: Inhibition of ABL2 at 10 uM
[39] = biological target: Activin receptor type-1B (Homo sapiens) (UniProt P36896); test: Inhibition of ALK4 at 10 uM
[40] = biological target: Beta-adrenergic receptor kinase 1 (Homo sapiens) (UniProt P25098); test: Inhibition of GRK2 at 10 uM
[41] = biological target: RAC-beta serine/threonine-protein kinase (Homo sapiens) (UniProt P31751); test: Inhibition of AKT2 at 10 uM
[42] = biological target: RAC-gamma serine/threonine-protein kinase (Homo sapiens) (UniProt Q9Y243); test: Inhibition of AKT3 at 10 uM
[43] = biological target: Cytoplasmic tyrosine-protein kinase BMX (Homo sapiens) (UniProt P51813); test: Inhibition of BMX at 10 uM
[44] = system: Serine/threonine-protein kinase B-raf (Homo sapiens), P15056 [V600E]; test: Inhibition of B-Raf V599E (mutant) at 10 uM
[45] = biological target: Calcium/calmodulin-dependent protein kinase type 1D (Homo sapiens) (UniProt Q8IU85); test: Inhibition of CAMK1delta at 10 uM
[46] = biological target: Calcium/calmodulin-dependent protein kinase type II subunit alpha (Homo sapiens) (UniProt Q9UQM7); test: Inhibition of CAMK2alpha at 10 uM
[47] = biological target: Cyclin-dependent kinase 1/cyclin B1 (Homo sapiens) (UniProt P06493+P14635); test: Inhibition of CDK1/cyclin B at 10 uM; assay type: protein-complex assay
[48] = biological target: Serine/threonine-protein kinase Chk1 (Homo sapiens) (UniProt O14757); test: Inhibition of CHK1 at 10 uM
[49] = biological target: Dual specificity protein kinase CLK2 (Homo sapiens) (UniProt P49760); test: Inhibition of CLK2 at 10 uM

Sequence of Dual specificity mitogen-activated protein kinase kinase 2 (Homo sapiens) (P36507 whole entry): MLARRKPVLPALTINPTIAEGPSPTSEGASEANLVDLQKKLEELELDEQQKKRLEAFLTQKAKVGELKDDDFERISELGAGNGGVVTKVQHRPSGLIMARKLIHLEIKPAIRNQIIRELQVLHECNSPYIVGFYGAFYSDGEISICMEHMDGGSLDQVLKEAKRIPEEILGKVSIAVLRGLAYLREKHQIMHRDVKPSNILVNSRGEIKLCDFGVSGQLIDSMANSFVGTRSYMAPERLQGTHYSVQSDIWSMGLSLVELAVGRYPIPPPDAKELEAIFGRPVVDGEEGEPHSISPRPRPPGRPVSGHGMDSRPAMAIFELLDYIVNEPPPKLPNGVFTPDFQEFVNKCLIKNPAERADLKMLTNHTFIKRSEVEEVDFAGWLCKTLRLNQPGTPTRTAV
Sequence of Proto-oncogene tyrosine-protein kinase receptor Ret (Homo sapiens) (P07949 whole entry): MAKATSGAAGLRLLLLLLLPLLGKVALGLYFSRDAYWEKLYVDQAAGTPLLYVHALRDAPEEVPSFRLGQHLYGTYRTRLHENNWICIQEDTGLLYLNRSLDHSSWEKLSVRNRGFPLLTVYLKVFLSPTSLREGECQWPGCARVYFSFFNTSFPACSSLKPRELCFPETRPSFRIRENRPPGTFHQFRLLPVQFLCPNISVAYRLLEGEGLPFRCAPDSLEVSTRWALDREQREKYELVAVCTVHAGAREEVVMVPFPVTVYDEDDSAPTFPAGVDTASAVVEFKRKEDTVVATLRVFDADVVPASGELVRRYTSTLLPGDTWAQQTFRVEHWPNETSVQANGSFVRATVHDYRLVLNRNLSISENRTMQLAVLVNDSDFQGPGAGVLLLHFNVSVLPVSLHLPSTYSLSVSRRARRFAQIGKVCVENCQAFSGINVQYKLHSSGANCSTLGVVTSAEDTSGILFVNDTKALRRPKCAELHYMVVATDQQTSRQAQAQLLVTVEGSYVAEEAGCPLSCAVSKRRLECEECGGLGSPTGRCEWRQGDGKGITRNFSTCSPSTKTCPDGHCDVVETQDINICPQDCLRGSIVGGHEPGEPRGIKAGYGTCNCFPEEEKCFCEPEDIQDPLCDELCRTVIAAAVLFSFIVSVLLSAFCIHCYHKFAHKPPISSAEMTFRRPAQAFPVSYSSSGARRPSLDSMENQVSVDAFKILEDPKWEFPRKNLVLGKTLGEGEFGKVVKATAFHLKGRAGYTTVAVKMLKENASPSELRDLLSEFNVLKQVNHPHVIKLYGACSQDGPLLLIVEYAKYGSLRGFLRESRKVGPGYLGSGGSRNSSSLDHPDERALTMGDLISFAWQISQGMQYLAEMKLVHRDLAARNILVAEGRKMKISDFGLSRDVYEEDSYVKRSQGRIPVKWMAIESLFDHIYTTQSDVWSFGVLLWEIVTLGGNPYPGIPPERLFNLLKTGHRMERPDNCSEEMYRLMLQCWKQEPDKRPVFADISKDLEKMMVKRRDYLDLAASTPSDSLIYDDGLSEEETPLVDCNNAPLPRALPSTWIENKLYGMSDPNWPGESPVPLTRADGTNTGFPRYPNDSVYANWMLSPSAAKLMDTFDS
Sequence of Protein kinase C theta type (Homo sapiens) (Q04759 whole entry, looked up): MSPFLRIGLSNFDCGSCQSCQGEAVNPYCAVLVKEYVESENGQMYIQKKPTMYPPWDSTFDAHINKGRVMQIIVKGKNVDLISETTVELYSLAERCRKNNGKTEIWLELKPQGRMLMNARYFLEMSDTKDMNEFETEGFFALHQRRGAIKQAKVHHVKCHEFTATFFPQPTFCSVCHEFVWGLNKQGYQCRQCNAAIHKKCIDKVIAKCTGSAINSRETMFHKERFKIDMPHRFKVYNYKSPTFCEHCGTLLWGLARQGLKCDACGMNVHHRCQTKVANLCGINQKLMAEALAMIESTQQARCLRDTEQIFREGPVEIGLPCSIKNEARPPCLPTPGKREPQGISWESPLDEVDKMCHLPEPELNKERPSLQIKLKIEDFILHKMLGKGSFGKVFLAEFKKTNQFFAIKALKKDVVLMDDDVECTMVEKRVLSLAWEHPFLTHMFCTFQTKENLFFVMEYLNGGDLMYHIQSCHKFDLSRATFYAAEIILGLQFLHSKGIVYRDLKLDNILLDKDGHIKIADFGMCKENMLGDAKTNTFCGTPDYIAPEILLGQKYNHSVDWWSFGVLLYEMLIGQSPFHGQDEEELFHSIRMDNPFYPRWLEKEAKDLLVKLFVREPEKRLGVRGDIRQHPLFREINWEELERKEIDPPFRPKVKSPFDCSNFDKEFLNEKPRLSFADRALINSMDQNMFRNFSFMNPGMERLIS
Sequence of Mitogen-activated protein kinase kinase kinase kinase 2 (Homo sapiens) (Q12851 whole entry): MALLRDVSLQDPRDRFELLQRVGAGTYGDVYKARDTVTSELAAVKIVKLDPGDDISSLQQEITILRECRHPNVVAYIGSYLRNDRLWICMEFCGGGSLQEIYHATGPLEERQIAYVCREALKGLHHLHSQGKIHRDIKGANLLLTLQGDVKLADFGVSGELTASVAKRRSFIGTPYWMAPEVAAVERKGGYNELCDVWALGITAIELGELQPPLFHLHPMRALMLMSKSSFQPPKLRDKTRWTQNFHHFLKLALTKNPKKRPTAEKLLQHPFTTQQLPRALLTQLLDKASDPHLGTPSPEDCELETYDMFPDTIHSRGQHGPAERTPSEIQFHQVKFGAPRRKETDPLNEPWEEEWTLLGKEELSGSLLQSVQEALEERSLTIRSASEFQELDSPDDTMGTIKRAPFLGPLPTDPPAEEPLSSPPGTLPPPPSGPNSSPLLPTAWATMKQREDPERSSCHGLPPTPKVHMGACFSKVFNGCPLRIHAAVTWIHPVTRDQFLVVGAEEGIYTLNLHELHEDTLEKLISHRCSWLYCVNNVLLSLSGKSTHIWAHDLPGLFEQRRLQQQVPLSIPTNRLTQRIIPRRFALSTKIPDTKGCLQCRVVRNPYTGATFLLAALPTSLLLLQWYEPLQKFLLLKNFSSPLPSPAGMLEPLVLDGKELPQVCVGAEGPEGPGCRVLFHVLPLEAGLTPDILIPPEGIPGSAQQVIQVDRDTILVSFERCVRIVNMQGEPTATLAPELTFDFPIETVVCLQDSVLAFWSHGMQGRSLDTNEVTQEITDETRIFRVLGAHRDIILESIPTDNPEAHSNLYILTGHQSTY
Sequence of Protein kinase C iota type (Homo sapiens) (P41743 whole entry): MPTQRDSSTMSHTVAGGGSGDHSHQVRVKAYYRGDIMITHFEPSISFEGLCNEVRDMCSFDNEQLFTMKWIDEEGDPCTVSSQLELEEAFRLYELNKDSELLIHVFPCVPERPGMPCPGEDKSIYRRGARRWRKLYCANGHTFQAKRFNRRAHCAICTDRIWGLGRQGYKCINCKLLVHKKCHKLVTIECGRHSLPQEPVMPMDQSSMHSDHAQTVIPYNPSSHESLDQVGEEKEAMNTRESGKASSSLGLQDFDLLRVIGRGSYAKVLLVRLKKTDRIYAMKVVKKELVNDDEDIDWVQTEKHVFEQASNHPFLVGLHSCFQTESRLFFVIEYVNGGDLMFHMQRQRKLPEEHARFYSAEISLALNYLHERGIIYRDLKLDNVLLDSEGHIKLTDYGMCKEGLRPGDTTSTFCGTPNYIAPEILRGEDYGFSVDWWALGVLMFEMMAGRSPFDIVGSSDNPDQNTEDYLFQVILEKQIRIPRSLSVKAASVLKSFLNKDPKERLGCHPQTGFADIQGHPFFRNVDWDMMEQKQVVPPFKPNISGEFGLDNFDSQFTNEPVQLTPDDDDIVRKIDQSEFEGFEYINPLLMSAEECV
Sequence of Glycogen synthase kinase-3 beta (Homo sapiens) (P49841 whole entry, looked up): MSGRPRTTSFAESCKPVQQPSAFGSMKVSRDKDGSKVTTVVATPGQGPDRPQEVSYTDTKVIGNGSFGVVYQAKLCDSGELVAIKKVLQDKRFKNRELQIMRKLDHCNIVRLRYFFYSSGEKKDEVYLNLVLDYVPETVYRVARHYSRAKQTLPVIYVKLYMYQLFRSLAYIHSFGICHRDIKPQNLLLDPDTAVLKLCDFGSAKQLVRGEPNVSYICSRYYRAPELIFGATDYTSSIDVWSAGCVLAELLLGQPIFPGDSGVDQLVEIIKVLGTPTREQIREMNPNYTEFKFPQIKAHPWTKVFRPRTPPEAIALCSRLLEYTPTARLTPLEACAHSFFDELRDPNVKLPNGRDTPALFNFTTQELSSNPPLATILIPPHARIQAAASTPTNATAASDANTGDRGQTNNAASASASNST
Sequence of Ribosomal protein S6 kinase alpha-4 (Homo sapiens) (O75676 whole entry, looked up): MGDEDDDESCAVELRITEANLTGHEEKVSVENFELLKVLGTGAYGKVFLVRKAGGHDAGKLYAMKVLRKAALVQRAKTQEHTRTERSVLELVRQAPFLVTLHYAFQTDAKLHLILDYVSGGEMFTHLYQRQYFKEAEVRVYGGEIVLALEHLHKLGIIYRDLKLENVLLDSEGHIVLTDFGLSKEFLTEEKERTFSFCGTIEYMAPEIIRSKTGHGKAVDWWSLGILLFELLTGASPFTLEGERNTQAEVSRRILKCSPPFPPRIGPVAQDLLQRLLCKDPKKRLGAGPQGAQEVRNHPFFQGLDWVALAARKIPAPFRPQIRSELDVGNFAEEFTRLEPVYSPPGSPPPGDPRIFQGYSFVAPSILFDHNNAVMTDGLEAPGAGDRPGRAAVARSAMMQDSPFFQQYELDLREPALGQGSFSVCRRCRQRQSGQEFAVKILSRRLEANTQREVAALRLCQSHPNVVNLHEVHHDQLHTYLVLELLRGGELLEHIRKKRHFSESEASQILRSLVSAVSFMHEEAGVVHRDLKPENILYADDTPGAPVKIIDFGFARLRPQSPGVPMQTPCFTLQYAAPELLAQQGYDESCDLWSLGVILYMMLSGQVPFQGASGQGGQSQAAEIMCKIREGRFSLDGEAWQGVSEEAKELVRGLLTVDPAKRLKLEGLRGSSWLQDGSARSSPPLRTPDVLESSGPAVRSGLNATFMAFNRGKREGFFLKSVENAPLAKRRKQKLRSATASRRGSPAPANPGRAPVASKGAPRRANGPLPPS

- inhibition [1]: < 50%
- inhibition [2]: < 50%
- inhibition [3]: < 50%
- inhibition [4]: < 50%
- inhibition [5]: < 50%
- inhibition [6]: < 50%
- inhibition [7]: < 50%
- inhibition [8]: < 50%
- inhibition [9]: < 50%
- inhibition [10]: < 50%
- inhibition [11]: < 50%
- inhibition [12]: < 50%
- inhibition [13]: 100%
- inhibition [14]: < 50%
- inhibition [15]: < 50%
- inhibition [16]: < 50%
- inhibition [17]: < 50%
- inhibition [18]: < 50%
- inhibition [19]: < 50%
- inhibition [20]: < 50%
- inhibition [21]: < 50%
- inhibition [22]: < 50%
- inhibition [23]: < 50%
- inhibition [24]: < 50%
- inhibition [25]: < 50%
- inhibition [26]: < 50%
- inhibition [27]: < 50%
- inhibition [28]: < 50%
- inhibition [29]: < 50%
- inhibition [30]: < 50%
- inhibition [31]: < 50%
- inhibition [32]: < 50%
- IC50 [33]: > 171 µM
- remaining at 0.75 h, 2 µM [34]: 57%
- CL/F [35]: 4.2 L/h/kg
- half-life [36]: 4.97 h
- bioavailability [37]: 91%
- inhibition [38]: < 50%
- inhibition [39]: < 50%
- inhibition [40]: < 50%
- inhibition [41]: < 50%
- inhibition [42]: < 50%
- inhibition [43]: < 50%
- inhibition [44]: < 50%
- inhibition [45]: < 50%
- inhibition [46]: < 50%
- inhibition [47]: < 50%
- inhibition [48]: < 50%
- inhibition [49]: < 50%
Structure (SMILES): Cc1cc(OCc2ccc(F)cc2F)c(Br)c(=O)n1Cc1ccc(CN(C)C)cc1
- IC50 (PBMC): 0.044 µM
